Where two headings read alike, the source gives them in different places.
Key:
[1] = tested on: MDA-MB-231, HeLa, A549 and HT-29 cancer cell lines; assay: Antiproliferative activity stated across the panel of cancer cell lines; type: cell-based, human; conditions: for IC50: Homo sapiens
Method: All the cell lines used in this paper were of human origin and purchased from the American Type Culture Collection (ATCC, Manassas, VA, USA). Colon adenocarcinoma (HT-29), non-small cell lung carcinoma (A549), cervix carcinoma (HeLa) and breast adenocarcinoma (MDA-MB-231) cells were grown in RPMI (HT29) or DMEM (A549, HeLa, MDA-MB-231) medium (Gibco, Milano, Italy). Both media were supplemented with 115 units/mL of penicillin G (Gibco, Milano, Italy), 115 μg/mL of streptomycin (Invitrogen, Milano, Italy) and 10% fetal bovine serum (Invitrogen, Milano, Italy). All cell lines were grown at 37 °C in a humidified 5% CO2 atmosphere. The cells were grown in 2 mL of complete medium.
Stock solutions were prepared for each compound by dissolving in DMSO at the final concentration of 10 mM.
The cells were seeded in 96-well plates at the appropriate density for each cell line. The respective cell line densities used for the antiproliferative assay were HeLa and HT29 5000 cells/well, A549 4000 cells/well and MDA-MB-231 7000 cells/well. The total volume of medium was 100 µL. After 24 h, the cells were treated by performing serial 5-fold dilutions of the tested compounds starting from a concentration of 10 μM. All experimental conditions were tested in triplicate for statistical analysis. After 72 h of incubation, 10 μL of 100 μg/mL resazurin solution was added to each well and the plate was re-incubated for 3–4 h. The fluorescence of the wells in each plate was monitored using a Spark 10M spectrophotometer (Tecan Group Ltd., Mannedorf, Switzerland) with a 535 nm excitation wavelength and a 600 nm emission wavelength.

HeLa cells = assay: Mitochondrial potential, JC-1 flow cytometry; type: cell-based, human; conditions: 24 h treatment, increased further at 48 h
Method: The analysis of the mitochondrial potential was carried out by flow cytometric analysis. Briefly, the cells treated with the test compound were labeled with the JC-1 dye as previously described. The labeled cells were analyzed using the Coulter Cytomics FC500 (Beckman Coulter) in the FL1 and FL2 channel, respectively.

ATR = assay: Western blot analysis; type: cell-based, human; conditions: HeLa, 24 h
Method: (§1) Hela cells treated with the test compounds were harvested by centrifugation and then lysed with 0.1% (v/v) Triton X-100 containing RNase A at 0 °C. The protein content of the solutions was measured and analyzed as described previously. The antibodies directed against cyclin B, cdc2 (Y15), ATR,Bcl-2, cleaved caspase-9 (D330) and actin were purchased from Cell Signaling. The membranes were visualized using ECL select (GE Healthcare, Uppsal, Sweden), and images were acquired using an Uvitec-Alliance imaging system.

Bcl-2 = assay: Western blot analysis; type: cell-based, human; conditions: HeLa, 24 h
Method: as §1

cdc2 (Y15) = assay: Western blot analysis; type: cell-based, human; conditions: HeLa, 24 h
Method: as §1

cleaved caspase-9 (D330) = assay: Western blot analysis; type: cell-based, human; conditions: HeLa, 24 h, 25 and 50 nM
Method: as §1

cyclin B = assay: Western blot analysis; type: cell-based, human; conditions: HeLa, 24 h
Method: as §1

HeLa cell xenograft = assay: Zebrafish xenograft model with DiI-labeled HeLa cells; type: in vivo, Zebrafish (Danio rerio); conditions: 24 h treatment, 30 or 300 nM
Excerpt: Prior to microinjections into Tg zebrafish embryos (fli1: EGFP), HeLa tumor cells were labeled with the VybrantTM DiI dye (Invitrogen, ThermoFisher, Carlsbad, CA, USA). The fluorescent cells were loaded into borosilicate glass capillary needles (OD/ID: 1.00/0.75 mm, World Precision Instruments (WPI, Friedberg, Germany) and injected (200 cells), through a pneumatic picopump, into the Cuvier duct of 48 hpf embryos previously anesthetized with tricaine (0.02%, Sigma-Aldrich, Milan, Italy).
After injection, the xenograft-harboring larvae were incubated to recover at 34° C in fish water containing phenylthiourea (PTU) to inhibit the pigmentation process. After 2 h from the injection, the embryos were examined to ensure homogeneity of the xenografts. For drug treatments, only successfully injected xenograft larvae were selected, with approximately 200 HeLa fluorescent cells scattered around the caudal area.
The injected xenografts were exposed to the doses of 3d used above with DMSO as control.
For cancer cell imaging and fluorescence quantification, anesthetized embryos were distributed to 96-well plates with one embryo/well. Initially (time 0 h, pre-treatment) and after one-day post-treatment, the tumors were photographed with a Zeiss AxioObserver microscope for live-cell imaging.

## COc1cc(-c2ccnc3nc(Nc4ccc(C)cc4)nn23)cc(OC)c1OC [Compound 3d, N-(p-Tolyl)-7-(3,4,5-trimethoxyphenyl)-[1,2,4]triazolo[1,5-a]pyrimidin-2-amine]
[1]; HeLa, HT-29 and A549 cells
  fold less active than 2a as antiproliferative agent: 1-2 fold
[1]; in the four tumor cell lines examined, read-out: IC50s, range
  IC50: 30 to 430 nM
[1]; on HeLa, A549 and HT-29 cancer cells, read-out: IC50 values, range
  IC50: 30 to 43 nM
[1]; antiproliferative agent
  fold more potent than the 7-(3′,4′,5′-trimethoxyanilino) counterpart: 4–30 fold
HeLa cells
  mitochondrial depolarization (JC-1 monomers): significant increase in the percentage of monomers
ATR
  ATR phosphorylation (Ser428): considerable increase in ATR phosphorylation (Ser428)
Bcl-2
  Bcl-2 expression: reduction in Bcl-2 expression starting at 10 nM
cdc2 (Y15)
  cdc2 phosphorylation (Y15): significant reduction in cdc2 phosphorylation (Y15)
Cleaved caspase-9 (D330)
  caspase-9 cleavage: appearance of the cleaved fragment of caspase-9
Cyclin B
  cyclin B expression: increase in cyclin B expression
HeLa cell xenograft
  fluorescence intensity of tumor xenografts: decreased in a dose-dependent manner, reaching statistical significance at 300 nM
  number of disseminated cancer cells: significantly reduced the number of disseminated cancer cells
